# Structures can show the parent of a compound that is named as a salt.
# Biological target: human recombinant KDM1A/CoREST protein (Homo sapiens, UniProt O60341)
# Test: Assay of enzyme inhibition of KDM1A (LSD1), TR-FRET
# Description: The intensity of the light emission is proportional to the level of biotinylated reaction product. The complex of human recombinant KDM1A/CoREST protein was produced in E. coli as separate proteins and co-purified as previously described.
# Demethylase reaction was started by the addition of 50 nM histone H3K4 monomethylated.
# The resulting mixture was incubated in the dark for 1 h at RT.
# The IC50 was calculated using GraphPad Software.
row,SMILES,IC50
1,"CN1CCC(Oc2ccc(OCc3ccc(NC(=O)c4cc5sccc5n4C)cc3)cc2)CC1 [Example 23, 4-methyl-N-[4-[[4-[(1-methyl-4-piperidyl)oxy]phenoxy]methyl]phenyl]thieno[3,2-b]pyrrole-5-carboxamide]",< 10 µM
2,"Cn1c(C(=O)Nc2ccccc2COc2ccc(O[C@@H]3C[C@H]4CC[C@@H](C3)N4)cc2)cc2sccc21 [Example 24, N-[2-[[4-[[(1S,5R)-8-azabicyclo[3.2.1]octan-3-yl]oxy]phenoxy]methyl]phenyl]-4-methyl-thieno[3,2-b]pyrrole-5-carboxamide]",< 10 µM
3,"Cn1c(C(=O)Nc2cccc(COc3ccc(O[C@@H]4C[C@H]5CC[C@@H](C4)N5)cc3)c2)cc2sccc21 [Example 25, N-[3-[[4-[[(1S,5R)-8-azabicyclo[3.2.1]octan-3-yl]oxy]phenoxy]methyl]phenyl]-4-methyl-thieno[3,2-b]pyrrole-5-carboxamide]",< 10 µM
4,"Cn1c(C(=O)Nc2cccc(COc3ccc(OC4CCCNC4)cc3)c2)cc2sccc21 (stereo not shown) [Example 28, 4-methyl-N-[3-[[4-(3-piperidyloxy)phenoxy]methyl]phenyl]thieno[3,2-b]pyrrole-5-carboxamide]",< 10 µM
5,"Cn1c(C(=O)Nc2cccc(COc3ccc(OC4CCNC4)cc3)c2)cc2sccc21 (stereo not shown) [Example 32, 4-methyl-N-[3-[(4-pyrrolidin-3-yloxyphenoxy)methyl]phenyl]thieno[3,2-b]pyrrole-5-carboxamide hydrochloride]",< 10 µM
6,"Cn1c(C(=O)Nc2ccccc2C(=O)Nc2ccc(OC3CCNCC3)cc2)cc2sccc21 [Example 36, 4-methyl-N-[2-[[4-(4-piperidyloxy)phenyl]carbamoyl]phenyl]thieno[3,2-b]pyrrole-5-carboxamide]",< 10 µM
7,"Cn1c(C(=O)Nc2ccccc2COc2ccc(N3CCNCC3)cc2)cc2sccc21 [Example 37, 4-methyl-N-[2-[(4-piperazin-1-ylphenoxy)methyl]phenyl]thieno[3,2-b]pyrrole-5-carboxamide]",< 10 µM
8,"COCc1cccc(NC(=O)c2cc3sccc3n2C)c1COc1ccc(OC[C@@H]2CCNC2)cc1 [Example 42, N-[3-(methoxymethyl)-2-[[4-[[(3R)-pyrrolidin-3-yl]methoxy]phenoxy]methyl]phenyl]-4-methyl-thieno[3,2-b]pyrrole-5-carboxamide hydrochloride]",< 10 µM
9,"COCc1cccc(NC(=O)c2cc3ccsc3n2C)c1 [Example 48, N-[3-(methoxymethyl)phenyl]-6-methyl-thieno[2,3-b]pyrrole-5-carboxamide]",< 25 µM
10,"Cn1c(C(=O)Nc2ccccc2COc2ccc(OC3CCNCC3)cn2)cc2sccc21 [Example 56, 4-Methyl-N-[2-[[5-(4-piperidyloxy)-2-pyridyl]oxymethyl]phenyl]thieno[3,2-b]pyrrole-5-carboxamide hydrochloride]",< 25 µM
11,"Cn1c(C(=O)Nc2ccccc2OCC2CCNCC2)cc2sccc21 [Example 57, 4-Methyl-N-[2-(4-piperidylmethoxy)phenyl]thieno[3,2-b]pyrrole-5-carboxamide hydrochloride]",< 50 µM
12,"Cn1c(C(=O)Nc2ccccc2COc2ccc(CNC(=N)N)cc2)cc2sccc21 [Example 60, N-[2-[[4-(Guanidinomethyl)phenoxy]methyl]phenyl]-4-methyl-thieno[3,2-b]pyrrole-5-carboxamide; trifluoroacetic acid]",< 10 µM
13,"Cn1c(C(=O)Nc2ccccc2COc2cccc(OC3CCNCC3)c2)cc2ccsc21 [Example 64, 6-Methyl-N-[2-[[3-(4-piperidyloxy)phenoxy]methyl]phenyl]thieno[2,3-b]pyrrole-5-carboxamide]",< 10 µM
14,"CCn1c(C(=O)Nc2ccccc2COc2cccc(OC3CCNCC3)c2)cc2ccsc21 [Example 65, 6-Ethyl-N-[2-[[3-(4-piperidyloxy)phenoxy]methyl]phenyl]thieno[2,3-b]pyrrole-5-carboxamide]",< 10 µM
15,"Cn1c(C(=O)Nc2ccccc2COc2ccc(OCC3CCNC3)cc2)cc2ccsc21 (stereo not shown) [Example 68, 6-Methyl-N-[2-[[4-(pyrrolidin-3-ylmethoxy)phenoxy]methyl]phenyl]thieno[2,3-b]pyrrole-5-carboxamide hydrochloride]",< 10 µM

# Second part, the compound after the results:
row,IC50,SMILES
1,< 10 µM,"Cn1c(C(=O)Nc2cccc(COc3ccncc3)c2)cc2sccc21 [Example 22, 4-methyl-N-[3-(4-pyridyloxymethyl)phenyl]thieno[3,2-b]pyrrole-5-carboxamide]"
2,< 10 µM,"Cn1c(C(=O)Nc2cccc(COc3ccc(OCC4CCNCC4)cc3)c2)cc2sccc21 [Example 26, 4-methyl-N-[3-[[4-(4-piperidylmethoxy)phenoxy]methyl]phenyl]thieno[3,2-b]pyrrole-5-carboxamide]"
3,< 10 µM,"Cn1c(C(=O)Nc2ccccc2COc2ccc(OC3CCCNC3)cc2)cc2sccc21 (stereo not shown) [Example 27, 4-methyl-N-[2-[[4-(3-piperidyloxy)phenoxy]methyl]phenyl]thieno[3,2-b]pyrrole-5-carboxamide]"
4,< 10 µM,"Cn1c(C(=O)Nc2cccc(COc3ccc(O[C@H]4CC[C@H](N)CC4)cc3)c2)cc2sccc21 [Example 29, N-[3-[[4-(trans-4-aminocyclohexoxy)phenoxy]methyl]phenyl]-4-methyl-thieno[3,2-b]pyrrole-5-carboxamide]"
5,< 10 µM,"Cn1c(C(=O)Nc2cccc(COc3ccc(OCC4CNC4)cc3)c2)cc2sccc21 [Example 30, N-[3-[[4-(azetidin-3-ylmethoxy)phenoxy]methyl]phenyl]-4-methyl-thieno[3,2-b]pyrrole-5-carboxamide]"
6,< 10 µM,"CNCCCOc1ccc(OCc2ccccc2NC(=O)c2cc3sccc3n2C)cc1 [Example 31, 4-methyl-N-[2-[[4-(3-methylaminopropoxy)phenoxy]methyl]phenyl]thieno[3,2-b]pyrrole-5-carboxamide hydrochloride]"
7,< 10 µM,"Cn1c(C(=O)Nc2cccc(COc3ccc(OC4CCCNCC4)cc3)c2)cc2sccc21 (stereo not shown) [Example 33, N-[3-[[4-(azepan-4-yloxy)phenoxy]methyl]phenyl]-4-methyl-thieno[3,2-b]pyrrole-5-carboxamide]"
8,< 10 µM,"Cn1c(C(=O)Nc2cccc(COc3ccc(O[C@H]4CC[C@@H](N)CC4)cc3)c2)cc2sccc21 [Example 34, N-[3-[[4-(cis-4-aminocyclohexoxy)phenoxy]methyl]phenyl]-4-methyl-thieno[3,2-b]pyrrole-5-carboxamide]"
9,< 10 µM,"Cn1c(C(=O)Nc2ccccc2COc2ccc(NC3CCNCC3)cc2)cc2sccc21 [Example 39, 4-methyl-N-[2-[[4-(4-piperidylamino)phenoxy]methyl]phenyl]thieno[3,2-b]pyrrole-5-carboxamide; 2,2,2-trifluoroacetic acid]"
10,< 10 µM,"Cn1c(C(=O)Nc2ccccc2COc2ccc(OCC3CNC3)cc2)cc2sccc21 [Example 40, N-[2-[[4-(azetidin-3-ylmethoxy)phenoxy]methyl]phenyl]-4-methyl-thieno[3,2-b]pyrrole-5-carboxamide; 2,2,2-trifluoroacetic acid]"
11,< 10 µM,"Cn1c(C(=O)Nc2ccccc2COc2ccc(CN3CCC4(CCNCC4)C3)cc2)cc2sccc21 [Example 41, N-[2-[[4-(2,8-diazaspiro[4.5]decan-2-ylmethyl)phenoxy]methyl]phenyl]-4-methyl-thieno[3,2-b]pyrrole-5-carboxamide]"
12,< 10 µM,"COCc1cccc(NC(=O)c2cc3sccc3n2C)c1COc1ccc(OC2CCNCC2)cc1 [Example 43, N-[3-(methoxymethyl)-2-[[4-(4-piperidyloxy)phenoxy]methyl]phenyl]-4-methyl-thieno[3,2-b]pyrrole-5-carboxamide hydrochloride]"
13,< 10 µM,"COCc1cccc(NC(=O)c2cc3sccc3n2C)c1COc1ccc(OC2CCCNCC2)cc1 (stereo not shown) [Example 44, N-[2-[[4-(azepan-4-yloxy)phenoxy]methyl]-3-(methoxymethyl)phenyl]-4-methyl-thieno[3,2-b]pyrrole-5-carboxamide hydrochloride]"
14,< 10 µM,"CCn1c(C(=O)Nc2cccc(COC)c2)cc2sccc21 [Example 45, 4-ethyl-N-[3-(methoxymethyl)phenyl]thieno[3,2-b]pyrrole-5-carboxamide]"
15,< 10 µM,"CSCc1cccc(NC(=O)c2cc3sccc3n2C)c1 [Example 46, 4-methyl-N-[3-(methylsulfanylmethyl)phenyl]thieno[3,2-b]pyrrole-5-carboxamide]"
16,< 10 µM,"Cn1c(C(=O)Nc2cccc(COc3cccc(OC4CCNCC4)c3)c2)cc2sccc21 [Example 58, 4-Methyl-N-[3-[[3-(4-piperidyloxy)phenoxy]methyl]phenyl]thieno[3,2-b]pyrrole-5-carboxamide hydrochloride]"
17,< 10 µM,"Cn1c(C(=O)Nc2cccc(COc3ccc(CNC(=N)N)cc3)c2)cc2sccc21 [Example 59, N-[3-[[4-(Guanidinomethyl)phenoxy]methyl]phenyl]-4-methyl-thieno[3,2-b]pyrrole-5-carboxamide; trifluoroacetic acid]"
18,< 10 µM,"CCn1c(C(=O)Nc2ccccc2COc2ccc(OC3CCNCC3)cc2)cc2ccsc21 [Example 66, 6-Ethyl-N-[2-[[4-(4-piperidyloxy)phenoxy]methyl]phenyl]thieno[2,3-b]pyrrole-5-carboxamide hydrochloride]"
19,< 10 µM,"Cn1c(C(=O)Nc2ccccc2COc2ccc(OC3CCNCC3)cc2)cc2ccsc21 [Example 67, 6-Methyl-N-[2-[[4-(4-piperidyloxy)phenoxy]methyl]phenyl]thieno[2,3-b]pyrrole-5-carboxamide]"
